In patent publication US10869931B2, “Polyethylene glycol-modified angiogenesis inhibitor HM-1 and application thereof” (NANJING ANJI BIOLOGICAL TECHNOLOGY CO.,LTD, priority 2016, dated 2020):
Marks after values point to notes of the source that are not given here. Where no end group is shown, it is not given here.

Columns and labels:
[1] = test system: Uterine cancer tumor cells; assay: MTT proliferation inhibition, uterine cancer cells; type: cell-based, human; set-up: concentration or dose not given beside the values; details: 48 h
Procedure, shortened: (§1)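 Tumour cells plated at 2×10^4 cells/mL, attached overnight, then exposed to dilutions of mPEG-HM-1 for 48 h at 37 °C, 5% CO2. MTT added 4 h, formazan dissolved in DMSO, absorbance 570/630 nm; growth inhibition = 1 − treated/untreated, three independent repeats, mean±SD.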

[2] = test system: adjuvant arthritis (AA) SD rats; assay: Adjuvant arthritis (AA) rat model; type: in vivo; details: for Joint swelling / Left and right paw swelling / Clinical score: AA SD rats; for Clinical score: maximum score 16
[3] = test system: retinal neovascular clusters in OIR C57/B16 mice; assay: Retinal blood vessels in OIR mice; type: in vivo, mouse; details: for Neovascular clusters area: retina evaluated on day 17; for Inhibition rate: neovascular clusters area vs control, day 17
Text: Establishment of the OIR model: Exposure of young mouse and their mothers to 75% hyperoxic environment from day 7 to day 12 after birth of C57/B16 mice caused rapid disappearance of capillaries in the central retina. Upon returning to the indoor air on the 12th day, the retinal blood vessels, upon exposing to hyperoxia, rapidly disappeared, causing extensive abnormal neovascularization, and the central portion of the retina remained largely avascular for a long time. After the blood vessels disappeared completely, on the 13th day, physiological saline (negative control group), mPEG-SC-HM-1, mPEG2-NHS-HM-1, mPEG-ALD10k-HM-1, and mPEG-bALD-HM-1, were administered by intravitreal injection and retinal vessels were evaluated on day 17 (to label unclosed vessels, […] of Texas Red-labeled tomato lectin was injected into the left ventricle and circulated for 5 min).

[4] = test system: Bladder Cancer tumor cells; assay: MTT proliferation inhibition, bladder cancer cells; type: cell-based, human; set-up: concentration or dose not given beside the values; details: 48 h
Procedure, shortened: as §1

[5] = test system: corneal neovascularization in BALB/c mice; assay: Alkali-burn corneal neovascularization in BALB/c mice (CD31 microvessel density); type: in vivo, mouse; details: for Inhibition rate: corneal microvessel density vs control; for Inhibition rate / MVD: day 14 after alkali burn, intravitreal once a day for 1 week; for MVD: microvessel density (CD31) of cornea
Text: (1) Preparation of corneal neovascularization model induced by alkali burn in BALB/c mice: mice were randomly grouped and labeled as mPEG-HM-1 experimental group and control group, 5 […] in each group, respectively, was given mPEG-HM-1 and saline by Intravitreal injection after alkali burn, once a day for 1 week. The inflammatory reaction and neovascularization of the cornea were observed under slit lamp microscope at 1 d, 7 d, and 14 d after alkali burn. On the 14th day after alkali burn, the corneal neovascularization was recorded under the slit lamp microscope in the anterior segment of the eye. All the mice were euthanized by cervical dislocation and the eyeballs were removed, washed with saline to rid of blood, and was fixed in 4% paraformaldehyde for 1.5 h, dehydrated in PBS containing 30% sucrose overnight, embedded in OCT frozen section embedding agent, stored in −80° C. refrigerator, frozen section 8 μm, and underwent immunocytochemical detection of CD31 expression. (2) Quantitative measurement of corneal tissue microvessel density: Microvessel density (MVD) is an indicator for evaluating angiogenesis. Vascular endothelial cells were labeled with anti-CD31 antibody by immunohistochemistry, and the number of microvessels per unit area was counted to measure the degree of neovascularization. Standards for counting microvessels: Microscopically, the endothelial cells or cell clusters that are clearly demarcated from adjacent tissues in the corneal tissue and stained brown or brown are counted in the neovascularization. The number of new blood vessels in the whole section was counted under a 10×20 microscope. After the corneal tissue was photographed, the entire corneal tissue area was calculated by image processing software Image J, and the neovascular density of the whole section was determined. The test was repeated 3 times independently. The results obtained by the test were expressed as mean±SD, and a statistical T test was performed. *P<0.05 was a significant difference, and **P<0.01 was a very significant difference.

Hemangioma tumor cells = assay: MTT proliferation inhibition, hemangioma cells; type: cell-based, human; set-up: concentration or dose not given beside the values; details: 48 h
Procedure, shortened: as §1

mouse spleen lymphocytes = assay: ConA-stimulated mouse spleen lymphocyte proliferation (MTT); type: cell-based; details: ConA 5 μg/mL, 48 h
Procedure, shortened: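 Proliferation read by MTT (4 h), DMSO solubilisation and OD 570 nm, 5 replicates, after 48 h culture at 37° C. Cells were erythrocyte-depleted splenocytes at 5×10^6/mL in RPMI 1640 plus 10% calf serum; groups were blank, ConA and dexamethasone 0.02 mg/mL.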

[6] = test system: collagen induced arthritis (CIA) in DBA/1 mice; assay: Collagen-induced mouse arthritis (CIA) model; type: in vivo; details: for Joint swelling / Left and right paw swelling / Clinical score: CIA DBA/1 mice; for Clinical score: maximum score 16
[7] = 10 mg/kg subcutaneous once every three days
[8] = 25 μg intravitreal injection on day 13
[9] = 10 mg/kg subcutaneous from day 30 of modeling
[10] = 20 mg/kg subcutaneous once every three days
[11] = 20 mg/kg subcutaneous from day 30 of modeling
[12] = 40 mg/kg subcutaneous once every three days
[13] = 40 mg/kg subcutaneous from day 30 of modeling
[14] = 80 mg/kg subcutaneous once every three days
[15] = 80 mg/kg subcutaneous from day 30 of modeling

Substance | rate of growth inhibition [1] [%] | Joint swelling [2, 7] [mm] | Left and right paw swelling [2, 7] [mm] | Clinical score [2, 7] | Neovascular clusters area [3, 8] [mm^2] | Inhibition rate ([3]; 25 μg intravitreal) | rate of growth inhibition [4] [%] | Inhibition rate [5] [%] | MVD [5] | rate of growth inhibition (Hemangioma tumor cells) [%] | A570 nm/A630 nm (mouse spleen lymphocytes; 5 μg/mL) | Inhibition Rate of spleen lymphocyte proliferation (mouse spleen lymphocytes; 5 μg/mL) [%] | A570 nm/A630 nm (mouse spleen lymphocytes; 10 μg/mL) | Inhibition Rate of spleen lymphocyte proliferation (mouse spleen lymphocytes; 10 μg/mL) [%] | A570 nm/A630 nm (mouse spleen lymphocytes; 20 μg/mL) | Inhibition Rate of spleen lymphocyte proliferation (mouse spleen lymphocytes; 20 μg/mL) [%] | Joint swelling [6, 9] [mm] | Left and right paw swelling [6, 9] [mm] | A570 nm/A630 nm (mouse spleen lymphocytes; 40 μg/mL) | Inhibition Rate of spleen lymphocyte proliferation (mouse spleen lymphocytes; 40 μg/mL) [%] | other results
mPEG-SC5k-Arg-Gly-Ala-Asp-Arg-Ala-Gly-Gly-Gly-Gly-Arg-Gly-Asp ({mPEG‑SC 5 kDa}-RGADRAGGGGRGD) [mPEG-SC5k-HM-1] | 60.25 ± 16.09 | 0.74 ± 0.18 | 3.96 ± 0.71 | 5.95 ± 1.07 | 0.116 ± 0.012 | 47.42%* | 35.72 ± 11.52 | 40.52 | 39.69 ± 3.527* | 43.68 ± 12.53 | 0.6253 ± 0.0947 | 9.32 | 0.5480 ± 0.1081 | 20.54 | 0.4954 ± 0.1219 | 28.16 | 0.81 ± 0.12 | 0.79 ± 0.11 |  |  | Clinical score [6, 9]: 9.10 ± 1.27
mPEG-SC10k-Arg-Gly-Ala-Asp-Arg-Ala-Gly-Gly-Gly-Gly-Arg-Gly-Asp ({mPEG‑SC 10 kDa}-RGADRAGGGGRGD) [mPEG-SC10k-HM-1] | 65.29 ± 19.06 |  |  |  |  |  | 42.76 ± 10.06 | 52.17 | 31.92 ± 3.648** | 52.88 ± 13.66 |  |  | 0.6234 ± 0.0976 | 9.60 | 0.5488 ± 0.1052 | 20.42 |  |  | 0.4788 ± 0.1282 | 30.57 | Joint swelling [2, 10]: 0.70 ± 0.18 mm; Left and right paw swelling [2, 10]: 3.81 ± 0.71 mm; Clinical score [2, 10]: 5.52 ± 1.07; in vivo immune protection effect on adjuvant arthritis model (in words) ([2]; AA rats, subcutaneous, once every three days, vs model group): has the most significant effect; Neovascular clusters area ([3]; 50 μg intravitreal injection on day 13): 0.096 ± 0.008 mm^2; Inhibition rate ([3]; 50 μg intravitreal): 56.56%**; inhibition rate of retinal neovascular clusters ([3]; OIR mice, 50 μg intravitreal injection, evaluated day 17): 56.56%; inhibition rate of corneal neovascularization ([5]; BALB/c mice, alkali burn, intravitreal injection once a day for 1 week): 52.17%; Joint swelling [6, 11]: 0.79 ± 0.13 mm; Left and right paw swelling [6, 11]: 0.77 ± 0.12 mm; Clinical score [6, 11]: 9.06 ± 1.24
mPEG-SC20k-Arg-Gly-Ala-Asp-Arg-Ala-Gly-Gly-Gly-Gly-Arg-Gly-Asp ({mPEG‑SC 20 kDa}-RGADRAGGGGRGD) [mPEG-SC20k-HM-1] | 76.93 ± 23.14 |  |  |  |  |  | 50.39 ± 11.73 | 46.53 | 35.68 ± 4.842** | 55.63 ± 18.30 |  |  |  |  | 0.6213 ± 0.0996 | 9.91 |  |  | 0.5444 ± 0.1120 | 21.06 | Joint swelling [2, 12]: 0.81 ± 0.20 mm; Left and right paw swelling [2, 12]: 3.75 ± 0.67 mm; Clinical score [2, 12]: 5.83 ± 1.01; Neovascular clusters area ([3]; 100 μg intravitreal injection on day 13): 0.110 ± 0.010 mm^2; Inhibition rate ([3]; 100 μg intravitreal): 50.23%**; A570 nm/A630 nm (mouse spleen lymphocytes; 80 μg/mL): 0.4741 ± 0.1270; Inhibition Rate of spleen lymphocyte proliferation (mouse spleen lymphocytes; 80 μg/mL): 31.25%; Joint swelling [6, 13]: 0.76 ± 0.12 mm; Left and right paw swelling [6, 13]: 0.72 ± 0.15 mm; Clinical score [6, 13]: 9.00 ± 1.25; limbs score (in words) ([6]; CIA mice, subcutaneous, once every three days, vs model control group): significantly lower than that of the model control group
mPEG-SC40k-Arg-Gly-Ala-Asp-Arg-Ala-Gly-Gly-Gly-Gly-Arg-Gly-Asp ({mPEG‑SC 40 kDa}-RGADRAGGGGRGD) [mPEG-SC40k-HM-1] | 70.27 ± 21.37 |  |  |  |  |  | 48.69 ± 11.61 | 43.48 | 37.72 ± 4.153** | 53.36 ± 15.09 |  |  |  |  |  |  |  |  | 0.6212 ± 0.0972 | 9.92 | Joint swelling [2, 14]: 0.71 ± 0.11 mm; Left and right paw swelling [2, 14]: 3.83 ± 0.62 mm; Clinical score [2, 14]: 5.88 ± 1.08; Neovascular clusters area ([3]; 200 μg intravitreal injection on day 13): 0.119 ± 0.005 mm^2; Inhibition rate ([3]; 200 μg intravitreal): 46.18%*; A570 nm/A630 nm (mouse spleen lymphocytes; 80 μg/mL): 0.5493 ± 0.1056; Inhibition Rate of spleen lymphocyte proliferation (mouse spleen lymphocytes; 80 μg/mL): 20.34%; A570 nm/A630 nm (mouse spleen lymphocytes; 160 μg/mL): 0.4794 ± 0.1214; Inhibition Rate of spleen lymphocyte proliferation (mouse spleen lymphocytes; 160 μg/mL): 30.48%; Joint swelling [6, 15]: 0.80 ± 0.16 mm; Left and right paw swelling [6, 15]: 0.80 ± 0.16 mm; Clinical score [6, 15]: 9.09 ± 1.33
mPEG-bALD5k-Arg-Gly-Ala-Asp-Arg-Ala-Gly-Gly-Gly-Gly-Arg-Gly-Asp ({mPEG‑bALD 5 kDa}-RGADRAGGGGRGD) [mPEG-bALD5k-HM-1] | 65.46 ± 18.52 | 0.73 ± 0.18 | 3.94 ± 0.65 | 5.92 ± 1.11 | 0.108 ± 0.008 | 51.17%** | 36.03 ± 10.12 | 43.10 | 37.97 ± 3.914* | 40.29 ± 12.16 | 0.6257 ± 0.1022 | 9.82 | 0.5645 ± 0.1114 | 18.64 | 0.4957 ± 0.1286 | 28.56 | 0.73 ± 0.15 | 0.74 ± 0.13 |  |  | Clinical score [6, 9]: 8.98 ± 1.25
